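Five concentrations, 48 hours, 96-well plates. GI50 marks 50% less growth. TGI marks complete inhibition of growth.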
What was measured:
Assay in all cases: DTP human tumour cell line panel, 48 h
HL-60(TB) leukemia = test system: HL-60(TB) leukemia
M14 melanoma = test system: M14 melanoma
SR leukemia = test system: SR leukemia
LOX IMVI melanoma = test system: LOX IMVI melanoma
MDA-MB-435 = test system: MDA-MB-435
SNB-19 CNS = test system: SNB-19 CNS
OVCAR-8 ovarian = test system: OVCAR-8 ovarian
K-562 leukemia = test system: K-562 leukemia
NCI-H522 lung = test system: NCI-H522 lung
HCT-15 colon = test system: HCT-15 colon
MCF7 breast = test system: MCF7 breast
OVCAR-3 ovarian = test system: OVCAR-3 ovarian
PC-3 prostate = test system: PC-3 prostate
786-0 renal = test system: 786-0 renal
SK-MEL-2 melanoma = test system: SK-MEL-2 melanoma
CCRF-CEM leukemia = test system: CCRF-CEM leukemia
MOLT-4 leukemia = test system: MOLT-4 leukemia
DU-145 prostate = test system: DU-145 prostate
NCI/ADR-RES ovarian = test system: NCI/ADR-RES ovarian
RPMI-8226 leukemia = test system: RPMI-8226 leukemia
HS 578T breast = test system: HS 578T breast
A549 NSCLC = test system: A549 NSCLC
BT-549 breast = test system: BT-549 breast
ACHN renal = test system: ACHN renal
UACC-62 melanoma = test system: UACC-62 melanoma
MALME-3M melanoma = test system: MALME-3M melanoma
HCC-2998 colon = test system: HCC-2998 colon
UO-31 renal = test system: UO-31 renal
SW-620 colon = test system: SW-620 colon
IGROV1 ovarian = test system: IGROV1 ovarian
OVCAR-4 ovarian = test system: OVCAR-4 ovarian
SF-268 CNS = test system: SF-268 CNS
COLO 205 colon = test system: COLO 205 colon
NCI-H460 lung = test system: NCI-H460 lung
A498 renal = test system: A498 renal
HOP-62 NSCLC = test system: HOP-62 NSCLC
EKVX NSCLC = test system: EKVX NSCLC
KM12 colon = test system: KM12 colon
OVCAR-5 ovarian = test system: OVCAR-5 ovarian
SN12C renal = test system: SN12C renal
MDA-MB-468 breast = test system: MDA-MB-468 breast
SNB-75 CNS = test system: SNB-75 CNS
SK-MEL-5 melanoma = test system: SK-MEL-5 melanoma
NCI-H226 lung = test system: NCI-H226 lung
CAKI-1 renal = test system: CAKI-1 renal
HCT-116 colon = test system: HCT-116 colon
SK-OV-3 ovarian = test system: SK-OV-3 ovarian
SF-295 CNS = test system: SF-295 CNS
T-47D breast = test system: T-47D breast
SF-539 CNS = test system: SF-539 CNS
HOP-92 NSCLC = test system: HOP-92 NSCLC
U251 CNS = test system: U251 CNS
UACC-257 melanoma = test system: UACC-257 melanoma
HT29 colon = test system: HT29 colon
MDA-MB-231 breast = test system: MDA-MB-231 breast
SK-MEL-28 melanoma = test system: SK-MEL-28 melanoma
NCI-H23 lung = test system: NCI-H23 lung
TK-10 renal = test system: TK-10 renal

## COc1cc(/C=C/C(=O)c2ccccc2)ccc1Oc1nc(Nc2ccc(F)cc2)nc(N(C)C)n1
HL-60(TB) leukemia
  GI50: 8.38 µM
  TGI: 67.1 µM
M14 melanoma
  GI50: 13 µM
  TGI: 37.8 µM
SR leukemia
  GI50: 2.9 µM
  TGI: > 100 µM
LOX IMVI melanoma
  GI50: 1.6 µM
  TGI: 3.15 µM
MDA-MB-435
  GI50: 7.39 µM
  TGI: 28.4 µM
SNB-19 CNS
  GI50: 10.2 µM
  TGI: 27.6 µM
OVCAR-8 ovarian
  GI50: 5.9 µM
  TGI: 26.5 µM
K-562 leukemia
  GI50: 3.57 µM
  TGI: > 100 µM
NCI-H522 lung
  GI50: 5.15 µM
  TGI: 59.2 µM
HCT-15 colon
  GI50: 3.31 µM
  TGI: 12.9 µM
MCF7 breast
  GI50: 3.08 µM
  TGI: 15 µM
OVCAR-3 ovarian
  GI50: 11.8 µM
  TGI: > 100 µM
PC-3 prostate
  GI50: 10 µM
  TGI: > 100 µM
786-0 renal
  GI50: 20.5 µM
  TGI: 87 µM
SK-MEL-2 melanoma
  GI50: 4.68 µM
  TGI: 20.7 µM
CCRF-CEM leukemia
  GI50: 3.38 µM
  TGI: > 100 µM
MOLT-4 leukemia
  GI50: 2.56 µM
  TGI: > 100 µM
DU-145 prostate
  GI50: 27.3 µM
  TGI: > 100 µM
NCI/ADR-RES ovarian
  GI50: 7.04 µM
  TGI: 22.6 µM
RPMI-8226 leukemia
  GI50: 2.83 µM
  TGI: 33.9 µM
HS 578T breast
  GI50: 5.44 µM
  TGI: 56.4 µM
A549 NSCLC
  GI50: 11.7 µM
  TGI: > 100 µM
BT-549 breast
  GI50: 12 µM
  TGI: 28.6 µM
ACHN renal
  GI50: 8.29 µM
  TGI: 37.4 µM
UACC-62 melanoma
  GI50: 4.99 µM
  TGI: 24.2 µM
MALME-3M melanoma
  GI50: 15.9 µM
  TGI: 39.6 µM
HCC-2998 colon
  GI50: 12.9 µM
  TGI: 76.5 µM
UO-31 renal
  GI50: 4.4 µM
  TGI: > 100 µM
SW-620 colon
  GI50: 1.81 µM
  TGI: 3.97 µM
IGROV1 ovarian
  GI50: 18.7 µM
  TGI: > 100 µM
OVCAR-4 ovarian
  GI50: 5.85 µM
  TGI: 41.7 µM
SF-268 CNS
  GI50: 12.2 µM
  TGI: > 100 µM
COLO 205 colon
  GI50: 15.1 µM
  TGI: > 100 µM
NCI-H460 lung
  GI50: 9.14 µM
  TGI: 30 µM
A498 renal
  GI50: 27 µM
  TGI: > 100 µM
HOP-62 NSCLC
  GI50: 26.6 µM
  TGI: > 100 µM
EKVX NSCLC
  GI50: 4.73 µM
  TGI: > 100 µM
KM12 colon
  GI50: 14.9 µM
  TGI: > 100 µM
OVCAR-5 ovarian
  GI50: 13.9 µM
  TGI: 48.3 µM
SN12C renal
  GI50: 7.32 µM
  TGI: 22.1 µM
MDA-MB-468 breast
  GI50: 3.21 µM
  TGI: 19.9 µM
SNB-75 CNS
  GI50: 4.7 µM
  TGI: 95.9 µM
SK-MEL-5 melanoma
  GI50: 6.21 µM
  TGI: 34.2 µM
NCI-H226 lung
  GI50: 4.94 µM
  TGI: 21.5 µM
CAKI-1 renal
  GI50: 5.72 µM
  TGI: > 100 µM
HCT-116 colon
  GI50: 3.21 µM
  TGI: 12.9 µM
SK-OV-3 ovarian
  GI50: 48.6 µM
  TGI: > 100 µM
SF-295 CNS
  GI50: 6.89 µM
  TGI: 48.5 µM
T-47D breast
  GI50: 3.36 µM
  TGI: > 100 µM
SF-539 CNS
  GI50: 13.8 µM
  TGI: 26.7 µM
HOP-92 NSCLC
  GI50: 2.08 µM
  TGI: 12.9 µM
U251 CNS
  GI50: 2.84 µM
  TGI: 13.4 µM
UACC-257 melanoma
  GI50: 6.44 µM
  TGI: 77.2 µM
HT29 colon
  GI50: 4.36 µM
  TGI: 19 µM
MDA-MB-231 breast
  GI50: 6.92 µM
  TGI: 21.9 µM
SK-MEL-28 melanoma
  GI50: 12.2 µM
  TGI: 32.1 µM
NCI-H23 lung
  GI50: 12.6 µM
  TGI: 51.4 µM
TK-10 renal
  GI50: 18 µM
  TGI: > 100 µM

Reference: PubChem BioAssay (NCI)
